Test results: patent US8530652B2, “Pyrrolopyrazoles, potent kinase inhibitors” (Agouron Pharmaceuticals, Inc., priority 2005, dated 2013)

How the values were obtained:
[1] = target: PAK4 kinase domain (PAK4 KD) (Homo sapiens (Human), UniProt O96013); assay: PAK4 kinase domain enzymatic assay (coupled PK/LDH, NADH absorbance at 340 nm); assay type: biochemical; details: PAK4 kinase domain, 25 nM PAK4 KD, 0.04 mM ATP, pH 7.5
Text: Cloning, expression, and purification of recombinant PAK4 Kinase domain (PAK4 KD): The cDNA coding for PAK4 was amplified from the EST clone (#12) (purchased from Research Genetics) by using PCR. […] The PCR amplified product was cloned into Topo vector (Invitrogen Inc.), and verified by DNA sequencing. PAK4 KD was then subcloned into expression plasmid pET28a(+), pET24a(+), or pGST4.5. The recombinant plasmids containing PAK4 KD was transformed into BL21(DE3) cells for recombinant protein expression. […] The cells were then harvested and lyzed for protein purification. Ni-NTA column (pET28a(+), pET24a(+)) and glutathione column (pGST4.5) were used for the purification.
PAK4 kinase domain enzymatic assay conditions: the enzymatic activity of PAK4 KD was measured by its ability to catalyze the transfer of a phosphate residue from a nucleoside triphosphate to an amino acid side chain of a commercially available peptide (amino acid sequence […]). The conversion of ATP to ADP accompanies the catalytic reaction. The PAK4 KD catalyzed production of ADP from ATP was coupled to the oxidation of NADH through the activities of pyruvate kinase (PK) and lactate dehydrogenase (LDH). The conversion of NADH to NAD^+ is monitored by the decrease in absorbance at 340 nm (e340=6.22 cm^−1mM^−1) using a Molecular Devices SPECTRAMAX 190 in conjunction with the Biomec FX. Typical reaction solutions contain 2 mM phosphoenolpyruvate, 0.35 mM NADH, 10 mM MgCl2, 1 mM DTT, 0.4 mM peptide ([…]) 0.04 mM ATP, 1 units/mL PK, 1 units/mL LDH, 0.01% Tween 20 in 50 mM HEPES, pH 7.5. […] The PAK KD Ki of each compound of the invention (the inhibitor) was calculated based on multiple of Percent Inhibition numbers of the inhibitor at different inhibitor concentrations. The peptide (amino sequence […]) was purchased from American Peptide Company. NADH, MgCl2, HEPES, DTT, ATP and PK/LDH were purchased from Sigma. Tween 20 was purchased from Calbiochem.

[2] = target: PAK4 kinase activity in whole cells (TR-293-KDG, modified HEK 293 overexpressing GEF-H1b and PAK4 KD) (Homo sapiens (Human), UniProt O96013); assay: PAK4 cellular assay: sandwich ELISA of PAK4-dependent phosphorylation of GEF-H1b in TR-293-KDG cells; assay type: cell-based; details: doxycycline-induced, 3-hour exposure, phospho-GEF-H1b ELISA
Chain of PAK4 kinase activity in whole cells (TR-293-KDG, modified HEK 293 overexpressing GEF-H1b and PAK4 KD) (O96013 321-572): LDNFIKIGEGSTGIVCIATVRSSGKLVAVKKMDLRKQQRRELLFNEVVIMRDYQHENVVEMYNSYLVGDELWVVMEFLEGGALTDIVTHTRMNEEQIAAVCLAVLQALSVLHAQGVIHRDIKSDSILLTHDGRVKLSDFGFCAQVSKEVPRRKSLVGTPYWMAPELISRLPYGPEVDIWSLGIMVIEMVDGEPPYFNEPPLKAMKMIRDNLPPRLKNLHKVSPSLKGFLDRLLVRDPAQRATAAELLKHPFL
Text: A sandwich ELISA method was used to measure the PAK4 kinase activity in whole cells. The level of PAK4-dependent phosphorylation of GEF-H1b can be determined by monitoring the binding of a phosphospecific antibody to GEF-H1b. A modified HEK 293 cell line is used in the bioassay and it has been engineered to overexpress both GEF-H1b and the kinase domain (KD) of PAK4. The KD of PAK4 is inducible in this cell line by tetracycline (Trex system, Invitrogen). The name of this cell line has been designated TR-293-KDG. To establish a phosphorylation event on GEF-H1, cells are induced with doxycycline to express the PAK4 KD. […] Candidate substance effect is measured as the ability to block this phosphorylation event.
ELISA plate was prepared by pre-coating the plates with a capture antibody (α-HA-tag mouse monoclonal antibody), blocked with BSA, and washed in 0.1% tween 20 in tris-buffered saline (TBST). Tissue culture plates (precoated with poly-D-lysine) were seeded with TR-293-KDG cells. The TR-293-KDG Cells were induced to express the PAK4 KD with doxycycline overnight and subsequently & concomitantly treated with candidate substances or diluent for an additional 3-hour, continuous exposure. Cells were then lysed with a modified RIPA buffer supplemented with protease inhibitors. The fresh whole cell lysates were then added to the ELISA plate for 2-hours. Between all subsequent steps plates were washed 4 times with TBST. Detection antibody (recognizing the phospho-specific eptitope on GEF-H1b) was added for 1 hour, followed by addition of an enzyme linked goat α-rabbit secondary antibody for 45 minutes. […] EC50 values were calculated by sigmoid curve fitting using a four-parameter analysis.

Chain of PAK4 kinase domain (PAK4 KD) (O96013 321-572): as above

CN(C)C[C@@H](OC(=O)N1Cc2c(Nc3ncnc4sccc34)n[nH]c2C1(C)C)c1ccccc1 [Example 75, (1S)-2-(dimethylamino)-1-phenylethyl 6,6-dimethyl-3-(thieno[2,3-d]pyrimidin-4-ylamino)-4,6-dihydropyrrolo[3,4-c]pyrazole-5(1H)-carboxylate]
Ki [1]: 5.2 nM | EC50 [2]: < 3.9 nM

CC1(C)c2[nH]nc(Nc3ncnc4ccsc34)c2CN1C(=O)N[C@H]1C[C@@H]1c1ccccc1 (relative stereo) [Example 1, 6,6-dimethyl-N-[trans-2-phenylcyclopropyl]-3-(thieno[3,2-d]pyrimidin-4-ylamino)-4,6-dihydropyrrolo[3,4-c]pyrazole-5(1H)-carboxamide]
Ki [1]: 41 nM | EC50 [2]: > 2000 nM

CC1(C)c2[nH]nc(Nc3nc(C(F)(F)F)nc4ccsc34)c2CN1C(=O)N[C@@H]1C[C@H]1c1ccccc1 (relative stereo) [Example 45, 6,6-dimethyl-N-[trans-2-phenylcyclopropyl]-3-{[2-(trifluoromethyl)thieno[3,2-d]pyrimidin-4-yl]amino}-4,6-dihydropyrrolo[3,4-c]pyrazole-5(1H)-carboxamide]
Ki [1]: 25 nM | EC50 [2]: 32 nM

CN(C)C[C@@H](OC(=O)N1Cc2c(Nc3ncnc4c3ncn4C)n[nH]c2C1(C)C)c1ccccc1 [Example 78, (1S)-2-(dimethylamino)-1-phenylethyl 6,6-dimethyl-3-[(9-methyl-9H-purin-6-yl)amino]-4,6-dihydropyrrolo[3,4-c]pyrazole-5(1H)-carboxylate]
Ki [1]: 330 nM | EC50 [2]: > 4000 nM

Cc1csc2c(Nc3n[nH]c4c3CN(C(=O)N[C@H]3C[C@@H]3c3ccccc3)C4(C)C)ncnc12 (relative stereo) [Example 49, 6,6-dimethyl-3-[(7-methylthieno[3,2-d]pyrimidin-4-yl)amino]-N-[trans-2-phenylcyclopropyl]-4,6-dihydropyrrolo[3,4-c]pyrazole-5(1H)-carboxamide]
Ki [1]: 160 nM | EC50 [2]: 332 nM

Cc1nc(Nc2n[nH]c3c2CN(C(=O)O[C@H](CN(C)C)c2ccccc2)C3(C)C)c2ccsc2n1 [Example 69, (1S)-2-(dimethylamino)-1-phenylethyl 6,6-dimethyl-3-[(2-methylthieno[2,3-d]pyrimidin-4-yl)amino]-4,6-dihydropyrrolo[3,4-c]pyrazole-5(1H)-carboxylate]
Ki [1]: 1.9 nM | EC50 [2]: 3 nM

CC1(C)c2[nH]nc(Nc3ccnc(C#N)n3)c2CN1C(=O)N[C@@H]1C[C@H]1c1ccccc1 (relative stereo) [Example 33, 3-[(2-cyanopyrimidin-4-yl)amino]-6,6-dimethyl-N-[trans-2-phenylcyclopropyl]-4,6-dihydropyrrolo[3,4-c]pyrazole-5(1H)-carboxamide]
Ki [1]: 47 nM | EC50 [2]: 618 nM

CN(C)C[C@@H](NC(=O)N1Cc2c(Nc3nc(C#N)nc4ccccc34)n[nH]c2C1(C)C)c1ccccc1 [Example 64, 3-[(2-cyanoquinazolin-4-yl)amino]-N-[(1S)-2-(dimethylamino)-1-phenylethyl]-6,6-dimethyl-4,6-dihydropyrrolo[3,4-c]pyrazole-5(1H)-carboxamide]
Ki [1]: 3 nM | EC50 [2]: < 3.9 nM

CN(C)C[C@@H](OC(=O)N1Cc2c(Nc3nc(C#N)nc4ccccc34)n[nH]c2C1(C)C)c1ccccc1 [Example 74, (1S)-2-(dimethylamino)-1-phenylethyl 3-[(2-cyanoquinazolin-4-yl)amino]-6,6-dimethyl-4,6-dihydropyrrolo[3,4-c]pyrazole-5(1H)-carboxylate]
Ki [1]: 3.6 nM | EC50 [2]: < 3.9 nM

CN(C)C[C@@H](OC(=O)N1Cc2c(Nc3ccnc(C(F)(F)F)n3)n[nH]c2C1(C)C)c1ccccc1 [Example 76, (1S)-2-(dimethylamino)-1-phenylethyl 6,6-dimethyl-3-{[2-(trifluoromethyl)pyrimidin-4-yl]amino}-4,6-dihydropyrrolo[3,4-c]pyrazole-5(1H)-carboxylate]
Ki [1]: 8.3 nM | EC50 [2]: < 3.9 nM

Cc1nc(Nc2n[nH]c3c2CN(C(=O)N[C@@H]2C[C@H]2c2ccccc2)C3(C)C)c2sccc2n1 [Example 32, 6,6-Dimethyl-3-[(2-methylthieno[3,2-d]pyrimidin-4-yl)amino]-N-[(1R,2S)-2-phenylcyclopropyl]-4,6-dihydropyrrolo[3,4-c]pyrazole-5(1H)-carboxamide]
Ki [1]: 3.5 nM | EC50 [2]: 19 nM

CCOc1ncc(F)c(Nc2n[nH]c3c2CN(C(=O)N[C@@H]2C[C@H]2c2ccccc2)C3(C)C)n1 (relative stereo) [Example 37, 3-[(2-ethoxy-5-fluoropyrimidin-4-yl)amino]-6,6-dimethyl-N-[trans-2-phenylcyclopropyl]-4,6-dihydropyrrolo[3,4-c]pyrazole-5(1H)-carboxamide]
Ki [1]: 270 nM | EC50 [2]: 805 nM

Cc1cc2c(Nc3n[nH]c4c3CN(C(=O)N[C@H](CN(C)C)c3ccccc3)C4(C)C)ncnc2s1 [Example 62, N-[(1S)-2-(dimethylamino)-1-phenylethyl]-6,6-dimethyl-3-[(6-methylthieno[2,3-d]pyrimidin-4-yl)amino]-4,6-dihydropyrrolo[3,4-c]pyrazole-5(1H)-carboxamide]
Ki [1]: 15 nM | EC50 [2]: 15 nM

CN(C)C[C@@H](NC(=O)N1Cc2c(Nc3ccnc(C(F)(F)F)n3)n[nH]c2C1(C)C)c1ccccc1 [Example 55, N-[(1S)-2-(dimethylamino)-1-phenylethyl]-6,6-dimethyl-3-{[2-(trifluoromethyl)pyrimidin-4-yl]amino}-4,6-dihydropyrrolo[3,4-c]pyrazole-5(1H)-carboxamide]
EC50 [2]: > 4000 nM

CC1(C)c2[nH]nc(Nc3nc(C#N)nc4ccccc34)c2CN1C(=O)N[C@@H]1C[C@H]1c1ccccc1 (relative stereo) [Example 40, 3-[(2-cyanoquinazolin-4-yl)amino]-6,6-dimethyl-N-[trans-2-phenylcyclopropyl]-4,6-dihydropyrrolo[3,4-c]pyrazole-5(1H)-carboxamide]
Ki [1]: 18 nM | EC50 [2]: 98 nM

Cn1cnc2c(Nc3n[nH]c4c3CN(C(=O)N[C@@H]3C[C@H]3c3ccccc3)C4(C)C)ncnc21 (relative stereo) [Example 36, 6,6-dimethyl-3-[(9-methyl-9H-purin-6-yl)amino]-N-[trans-2-phenylcyclopropyl]-4,6-dihydropyrrolo[3,4-c]pyrazole-5(1H)-carboxamide]
EC50 [2]: > 4000 nM

Cc1nccc(Nc2n[nH]c3c2CN(C(=O)N[C@@H]2C[C@H]2c2ccccc2)C3(C)C)n1 (relative stereo) [Example 39, 6,6-dimethyl-3-[(2-methylpyrimidin-4-yl)amino]-N-[trans-2-phenylcyclopropyl]-4,6-dihydropyrrolo[3,4-c]pyrazole-5(1H)-carboxamide]
EC50 [2]: > 4000 nM

Cc1cc(C)nc(Nc2n[nH]c3c2CN(C(=O)NC2C[C@@H]2c2ccccc2)C3(C)C)n1 (stereo partly shown) [Example 24]
Ki [1]: 640 nM

Cc1csc2c(Nc3n[nH]c4c3CN(C(=O)N3C[C@@H]5CCCN5C[C@@H]3C)C4(C)C)ncnc12 [Example 81, N-(6,6-dimethyl-5-{[(3S,8aS)-3-methylhexahydropyrrolo[1,2-a]pyrazin-2(1H)-yl]carbonyl}-1,4,5,6-tetrahydropyrrolo[3,4-c]pyrazol-3-yl)-7-methylthieno[3,2-d]pyrimidin-4-amine]
Ki [1]: 84 nM

CN(C)c1nc(Nc2n[nH]c3c2CN(C(=O)NC2C[C@@H]2c2ccccc2)C3(C)C)nc(N2CCC[C@H]2C(N)=O)n1 (stereo partly shown) [Example 22]
Ki [1]: 720 nM
